Test results as given in US10414771B2, “Compounds useful for inhibiting metastasis from cancer and methods using same” (Drexel University, priority 2010, dated 2019).
Values joined by “and” are separate entries in the source; they are usually repeats but may differ in a detail not shown here. Equal entries are not always repeated. Where two headings read alike, the source gives them in different places. Blank lines part the entries; values can stand above or below the molecule they belong to.

Key:
Format in all cases: cell-based
p-ERK1/2 = p-ERK1/2 inhibition by Western blot analysis
Protocol: (§1) Cell lysates were obtained and SDS-polyacrylamide gel electrophoresis and western blot analysis were performed as previously described (Shulby et al., 2004, Cancer Res. 64:4393-98), with few modifications. Membranes were probed with an antibody against CX3CR1 (0.5 μg/ml, Torrey Pines Biolabs, East Orange, N.J.) and actin (Sigma, St. Louis, Mo.) using 5% milk as a blocking reagent. Membranes were also probed with antibodies targeting phospho-p44/42 MAPK (Thr202/Tyr204, Cell Signaling) and total p44/42 MAPK (Cell Signaling). All primary antibody incubations were performed overnight at 4° C. Primary antibody binding was detected using horseradish peroxidase-conjugated anti-rabbit secondary antibody (Pierce, Rockford, Ill.). Chemiluminescent signals were obtained using SuperSignal West Femto reagents (Pierce) and detected with the Fluorochem 8900 imaging system and relative software (Alpha Innotech, San Leandro, Calif.).

CX3CR1 [1] = biological target: T1, CX3CR1 (Homo sapiens, UniProt P49238); experiment: Calcium mobilization (Ca2+) assay, antagonist mode (CX3CL1 at EC80), HEK293T cells stably expressing human CX3CR1; design: Expression vector containing full-length human CX3CR1 cDNA; host or cells: HEK293T; details: for % Increase in RFU / RFU: antagonist mode
T1 sequence (P49238 1-355): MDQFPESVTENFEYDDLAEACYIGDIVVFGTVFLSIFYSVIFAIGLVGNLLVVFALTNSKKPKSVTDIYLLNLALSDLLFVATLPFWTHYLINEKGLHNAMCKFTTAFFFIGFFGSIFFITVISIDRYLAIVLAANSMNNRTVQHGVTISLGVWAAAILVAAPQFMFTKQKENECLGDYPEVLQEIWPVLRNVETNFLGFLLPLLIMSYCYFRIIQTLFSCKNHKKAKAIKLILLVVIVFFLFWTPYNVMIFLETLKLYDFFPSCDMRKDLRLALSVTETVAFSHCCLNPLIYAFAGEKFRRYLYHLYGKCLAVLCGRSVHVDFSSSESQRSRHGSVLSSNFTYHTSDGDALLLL
Protocol: (§2) Cells: Mammalian HEK293T cells stably expressing human CX3CR1 (Multispan, Hayward, Calif.)—Host cell: HEK293T; Transfection: Expression vector containing full-length human CX3CR1 cDNA (GenBank Accession Number NM_001337) with FLAG tag sequence at N-terminus; Propagation Medium: DMEM, 10% FBS, 1 μg/mL puromycin.
(§3) Compounds were reconstituted in DMSO at 10 mM. Control agonist CX3CL1 was from Peprotech (Cat #300-31).
(§4) Calcium assay: Cells expressing the CX3CR1 receptor were transiently transfected with the chimeric G protein Gαqi5 and seeded in 384-well plates at appropriate densities and cultured overnight. Calcium assays were conducted according to the manufacturer's protocols. The calcium dye loading buffer was added to the cells and incubated for one hour at 37° C. Calcium flux was monitored for 90 seconds with compound injected into the wells at 20th second. In antagonist mode, carrier or compounds were preincubated with the cells for 30 minutes before calcium flux measurement with the control agonist at EC80 concentration (0.04 μM).
(§5) Data analysis: Calcium assay results were expressed as “RFU” and “% Increase in RFU” (FIG. 17). Data were represented in Mean±SEM. Dose-response curves were fitted using “Sigmoidal dose-response (variable slope)” function in Prism 4 without constraint. EC50, EC80 and IC50 values were derived from “% Increase in RFU”.

CX3CR1 [2] = biological target: T1, CX3CR1; experiment: Calcium mobilization (Ca2+) assay, agonist mode, HEK293T cells stably expressing human CX3CR1; design: Expression vector containing full-length human CX3CR1 cDNA; host or cells: HEK293T; details: for stimulation of calcium flux (agonist activity): HEK293T cells expressing human CX3CR1
Protocol: as §2, §3, §4, §5

CX3CR1 [3] = biological target: T1, CX3CR1; experiment: Inhibition of FKN-induced ERK phosphorylation in MDA-436 breast cancer cells over-expressing CX3CR1 (Western blot); design: expressed in transfected cells; host or cells: MDA-MB-436 human breast cancer cells; details: for inhibition of ERK phosphorylation induced by FKN: compound at 10 μM, incubated 30 minutes, MDA-436 cells over-expressing CX3CR1, 50 nM FKN for 5 minutes
Protocol: Cells were serum starved for 4 hours and then exposed to 50 nM recombinant human FKN (R&D systems, Minneapolis, Minn.) for indicated time points.
as §1
Compound 1 was then evaluated for its ability to inhibit the activation of downstream intracellular pathways by CX3CR1 upon stimulation with soluble FKN. In these experiments, MDA-MB 436 human breast cancer cells, engineered to over-express CX3CR1, were treated with 50 nM FKN for 5 minutes after being incubated with compound 1 for 30 minutes.

[4] = CX3CL1 at EC80 (0.04 μM), Log [Compounds] M −4.5, listed as JMS-16
[5] = CX3CL1 at EC80 (0.04 μM), Log [Compounds] M −4.8, listed as JMS-16
[6] = CX3CL1 at EC80 (0.04 μM), Log [Compounds] M −5.1, listed as JMS-16
[7] = CX3CL1 at EC80 (0.04 μM), Log [Compounds] M −5.4, listed as JMS-16
[8] = CX3CL1 at EC80 (0.04 μM), Log [Compounds] M −5.7, listed as JMS-16
[9] = CX3CL1 at EC80 (0.04 μM), Log [Compounds] M −6.0, listed as JMS-16
[10] = CX3CL1 at EC80 (0.04 μM), Log [Compounds] M −6.3, listed as JMS-16
[11] = CX3CL1 at EC80 (0.04 μM), Log [Compounds] M −6.6, listed as JMS-16
[12] = agonist mode, Log [Compounds] M −4.5, listed as JMS-16
[13] = agonist mode, Log [Compounds] M −4.8, listed as JMS-16
[14] = agonist mode, Log [Compounds] M −5.1, listed as JMS-16
[15] = agonist mode, Log [Compounds] M −5.4, listed as JMS-16
[16] = agonist mode, Log [Compounds] M −5.7, listed as JMS-16
[17] = agonist mode, Log [Compounds] M −6.0, listed as JMS-16
[18] = agonist mode, Log [Compounds] M −6.3, listed as JMS-16
[19] = agonist mode, Log [Compounds] M −6.6, listed as JMS-16
[20] = EC80 CX3CL1 (0.04 μM) alone, no test compound
[21] = control agonist, Log [CX3CL1] M −6.7
[22] = control agonist, Log [CX3CL1] M −7.2
[23] = control agonist, Log [CX3CL1] M −7.7
[24] = control agonist, Log [CX3CL1] M −8.1
[25] = control agonist, Log [CX3CL1] M −8.6
[26] = control agonist, Log [CX3CL1] M −9.1
[27] = control agonist, Log [CX3CL1] M −9.6
[28] = control agonist, Log [CX3CL1] M −10.0

Molecule: O=c1c2cccn2c2ccccc2n1CCCN1CCC(O)(c2ccc(Cl)cc2)CC1 [Compound 3, 5-(3-(4-(4-chlorophenyl)-4-hydroxypiperidin-1-yl)propyl)pyrrolo[1,2-a]quinoxalin-4(5H)-one]
EC50 (p-ERK1/2): ~0.01 µM
IC50 (CX3CR1 [1]; 30 min preincubation, CX3CL1 at EC80 (0.04 μM), read-out: IC50, inhibition of CX3CL1-evoked calcium flux): 21 µM
% Increase in RFU (CX3CR1 [1]; [4]): 4.4% and 3.5% and 2.2%
RFU (CX3CR1 [1]; [4]): 1.2 RFU and 0.9 RFU and 0.6 RFU
% Increase in RFU (CX3CR1 [1]; [5]): 27.9% and 23.6% and 26.7%
RFU (CX3CR1 [1]; [5]): 9.5 RFU and 7.6 RFU and 8.5 RFU
% Increase in RFU (CX3CR1 [1]; [6]): 45.0% and 38.6% and 38.7%
RFU (CX3CR1 [1]; [6]): 15.0 RFU and 13.0 RFU and 12.3 RFU
% Increase in RFU (CX3CR1 [1]; [7]): 52.1% and 45.7% and 41.1%
RFU (CX3CR1 [1]; [7]): 15.5 RFU and 14.4 RFU and 13.5 RFU
% Increase in RFU (CX3CR1 [1]; [8]): 48.9% and 53.1% and 47.0%
RFU (CX3CR1 [1]; [8]): 15.6 RFU and 17.9 RFU and 14.4 RFU
% Increase in RFU (CX3CR1 [1]; [9]): 58.1% and 54.8% and 53.3%
RFU (CX3CR1 [1]; [9]): 18.4 RFU and 18.6 RFU and 18.2 RFU
% Increase in RFU (CX3CR1 [1]; [10]): 46.4% and 46.2% and 42.0%
RFU (CX3CR1 [1]; [10]): 15.7 RFU and 14.6 RFU and 14.5 RFU
% Increase in RFU (CX3CR1 [1]; [11]): 45.9% and 41.3% and 44.0%
RFU (CX3CR1 [1]; [11]): 13.6 RFU and 14.0 RFU and 14.4 RFU
stimulation of calcium flux (agonist activity) (CX3CR1 [2]): agonist activity at the two highest concentrations
% Increase in RFU (CX3CR1 [2]; [12]): 127.9% and 118.0% and 112.4%
RFU (CX3CR1 [2]; [12]): 31.7 RFU and 30.7 RFU and 29.0 RFU
% Increase in RFU (CX3CR1 [2]; [13]): 80.2% and 85.0% and 84.7%
RFU (CX3CR1 [2]; [13]): 22.1 RFU and 22.5 RFU and 23.3 RFU
% Increase in RFU (CX3CR1 [2]; [14]): 60.1% and 70.3% and 64.9%
RFU (CX3CR1 [2]; [14]): 16.5 RFU and 20.3 RFU and 18.8 RFU
% Increase in RFU (CX3CR1 [2]; [15]): 61.1% and 62.3% and 60.5%
RFU (CX3CR1 [2]; [15]): 15.5 RFU and 16.9 RFU and 17.1 RFU
% Increase in RFU (CX3CR1 [2]; [16]): 57.2% and 61.7% and 60.7%
RFU (CX3CR1 [2]; [16]): 15.2 RFU and 17.8 RFU and 17.1 RFU
% Increase in RFU (CX3CR1 [2]; [17]): 58.3% and 63.2% and 63.0%
RFU (CX3CR1 [2]; [17]): 15.6 RFU and 18.7 RFU and 18.6 RFU
% Increase in RFU (CX3CR1 [2]; [18]): 59.0% and 66.2% and 61.9%
RFU (CX3CR1 [2]; [18]): 16.0 RFU and 18.2 RFU and 19.5 RFU
% Increase in RFU (CX3CR1 [2]; [19]): 61.6% and 62.1% and 60.1%
RFU (CX3CR1 [2]; [19]): 15.5 RFU and 18.6 RFU and 17.8 RFU

Molecule: N#CC(CCCN1CCC(O)(c2ccc(Cl)cc2)CC1)(c1ccccc1)c1ccccc1 [Compound 1, 5-(4-(4-chlorophenyl)-4-hydroxypiperidin-1-yl)-2,2-diphenylpentanenitrile]
CX3CR1 antagonism (in words) (CX3CR1 [3]): weakly potent
inhibition of ERK phosphorylation induced by FKN (CX3CR1 [3]): inhibits ERK phosphorylation
inhibition of ERK phosphorylation induced by FKN (CX3CR1 [3]; listed as compound 1): able to inhibit the activation of the MAPK pathway
CX3CR1 antagonism (in words) (CX3CR1 [3]; listed as compound 1): weak CX3CR1 antagonism

% Increase in RFU (CX3CR1 [1]; [20]): 45.9% and 37.2% and 45.8%
RFU (CX3CR1 [1]; [20]): 16.0 RFU and 10.9 RFU and 15.8 RFU
% Increase in RFU (CX3CR1 [2]; [21]): 59.0% and 61.1%
RFU (CX3CR1 [2]; [21]): 22.2 RFU and 22.7 RFU
% Increase in RFU (CX3CR1 [2]; [22]): 59.9% and 52.7%
RFU (CX3CR1 [2]; [22]): 21.4 RFU and 20.1 RFU
% Increase in RFU (CX3CR1 [2]; [23]): 42.3% and 35.6%
RFU (CX3CR1 [2]; [23]): 15.5 RFU and 12.4 RFU
% Increase in RFU (CX3CR1 [2]; [24]): 25.3% and 14.3%
RFU (CX3CR1 [2]; [24]): 9.3 RFU and 4.8 RFU
% Increase in RFU (CX3CR1 [2]; [25]): 9.6% and 11.8%
RFU (CX3CR1 [2]; [25]): 3.3 RFU and 4.0 RFU
% Increase in RFU (CX3CR1 [2]; [26]): 12.2% and 11.0%
RFU (CX3CR1 [2]; [26]): 4.4 RFU and 4.1 RFU
% Increase in RFU (CX3CR1 [2]; [27]): 8.3% and 5.1%
RFU (CX3CR1 [2]; [27]): 2.9 RFU and 1.9 RFU
% Increase in RFU (CX3CR1 [2]; [28]): 7.6% and 4.7%
RFU (CX3CR1 [2]; [28]): 2.6 RFU and 1.6 RFU
B1: CX3CL1: Control agonist CX3CL1 from Peprotech; chemokine ligand of CX3CR1, also called fractalkine or FKN (protein, listed as Homo sapiens)
chain: MAPISLSWLLRLATFCHLTVLLAGQHHGVTKCNITCSKMTSKIPVALLIHYQQNQASCGKRAIILETRQHRLFCADPKEQWVKDAMQHLDRQAAALTRNGGTFEKQIGEVKPRTTPAAGGMDESVVLEPEATGESSSLEPTPSSQEAQRALGTSPELPTGVTGSSGTRLPPTPKAQDGGPVGTELFRVPPVSTAATWQSSAPHQPGPSLWAEAKTSEAPSTQDPSTQASTASSPAPEENAPSEGQRVWGQGQSPRPENSLEREEMGPVPAHTDAFQDWGPGSMAHVSVVPVSSEGTPSREPVASGSWTPKAEEPIHATMDPQRLGVLITPVPDAQAATRRQAVGLLAFLGLLFCLGVAMFTYQSLQGCPRKMAGEMAEGLRYIPRSCGSNSYVLVPV
stimulation of calcium flux (agonist activity) (CX3CR1 [2]): dose-dependent stimulation of calcium flux
